Values joined by “and” are separate entries in the source; they are usually repeats but may differ in a detail not shown here. Equal values may be shown once.
Key:
[1] = In vitro metabolism, human liver microsomes; assay type: in vitro ADME; settings: 60 min, 10 μM S3643, relative to S3643 peak area at time 0
[2] = Pharmacokinetics of S3643, single iv or oral dose; assay type: in vivo, Sprague-Dawley rats; settings: for AUC(0-t): AUClast
[3] = female, Sprague-Dawley, rat, plasma, iv, 1 mg/kg
[4] = female, Sprague-Dawley, rat, plasma, po
[5] = female, Sprague-Dawley, rat, plasma, po, 10 mg/kg
[6] = female, Sprague-Dawley, rat, plasma, po, 30 mg/kg
[7] = female, Sprague-Dawley, rat, plasma, po, 100 mg/kg
[8] = female, iv 1.0 mg/kg bw, 1 mg/kg
[9] = male, Sprague-Dawley, rat, plasma, iv, 1 mg/kg
[10] = male, Sprague-Dawley, rat, plasma, po
[11] = male, Sprague-Dawley, rat, plasma, po, 10 mg/kg
[12] = male, Sprague-Dawley, rat, plasma, po, 30 mg/kg
[13] = male, Sprague-Dawley, rat, plasma, po, 100 mg/kg

For `COc1cccc(-c2n[nH]c(SCc3ccccn3)n2)c1OC` [S3643, 2-(((3-(2,3-dimethoxyphenyl)-1H-1,2,4-triazol-5-yl)thio)methyl)pyridine], the “% MS Peak Area, Human” value [1] was 54.9%, the “Fold increase in AUClast for 10-fold increase in oral dose” value ([2]; female) was 16.8 fold and the Tmax [2, 3] was 1.8 min. For the same compound, the Vd [2, 3] was 0.325 L/kg, the clearance [2, 3] was 8.03 mL/min/kg and the half-life [2, 3] was 9.6 min. For the same compound, the bioavailability [2, 4] was 67.4 to 116%, the half-life [2, 4] was 53.4 to 99.6 min and the Tmax [2, 5] was 15 min. For the same compound, the bioavailability [2, 5] was 67.4%, the half-life [2, 5] was 53.4 min and the AUC(0-t) ([2]; female, Sprague-Dawley, rat, plasma, po, 10 mg/kg, oral 10 mg/kg bw) was 14200 ng·h/mL. The Cmax ([2]; female, Sprague-Dawley, rat, plasma, po, 10 mg/kg, Cmax, oral 10 mg/kg bw) was 14900 ng/mL, the Tmax [2, 6] was 15 min and the bioavailability [2, 6] was 116%. For the same compound, the half-life [2, 6] was 68.4 min, the AUC(0-t) ([2]; female, Sprague-Dawley, rat, plasma, po, 30 mg/kg, oral 30 mg/kg bw) was 73500 ng·h/mL and the Cmax ([2]; female, Sprague-Dawley, rat, plasma, po, 30 mg/kg, Cmax, oral 30 mg/kg bw) was 45400 ng/mL. For the same compound, the Tmax [2, 7] was 22.8 min, the bioavailability [2, 7] was 113% and the half-life [2, 7] was 99.6 min. For the same compound, the AUC(0-t) ([2]; female, Sprague-Dawley, rat, plasma, po, 100 mg/kg, oral 100 mg/kg bw) was 239000 ng·h/mL, the Cmax ([2]; female, Sprague-Dawley, rat, plasma, po, 100 mg/kg, Cmax, oral 100 mg/kg bw) was 98900 ng/mL and 310 µM and the “CL as % of hepatic blood flow” value ([2]; female, iv) was 14.5%. For the same compound, the “Vss as % of total body water volume” value ([2]; female, iv) was 48.6%, the AUC0-last/dose ([2]; female, iv 1.0 mg/kg bw) was 2110 ng·h/mL/mg/kg and the AUC0-last [2, 8] was 2110 ± 353 ng·h/mL. For the same compound, the Cmax [2, 8] was 9840 ± 1880 ng/mL, the AUC0-last/dose ([2]; female, oral gavage 10 mg/kg bw) was 1423 ng·h/mL/mg/kg and the AUC0-last/dose ([2]; female, oral gavage 30 mg/kg bw) was 2450 ng·h/mL/mg/kg. For the same compound, the AUC0-last/dose ([2]; female, oral gavage 100 mg/kg bw) was 2393 ng·h/mL/mg/kg, the “Female/male ratio of mean AUClast” value ([2]; iv 1 mg/kg) was 0.76 and the “Female/male ratio of mean Cmax” value ([2]; iv 1 mg/kg) was 0.91. The “Fold increase in AUClast for 10-fold increase in oral dose” value ([2]; male) was 6.88 fold, the Tmax [2, 9] was 1.8 min and the Vd [2, 9] was 0.337 L/kg. The clearance [2, 9] was 5.97 mL/min/kg, the half-life [2, 9] was 11.4 min and the bioavailability [2, 10] was 65.7 to 96%. For the same compound, the half-life [2, 10] was 48 to 99.6 min, the Tmax [2, 11] was 15 min and the bioavailability [2, 11] was 95.5%. The half-life [2, 11] was 48 min, the AUC(0-t) ([2]; male, Sprague-Dawley, rat, plasma, po, 10 mg/kg, oral 10 mg/kg bw) was 26600 ng·h/mL and the Cmax ([2]; male, Sprague-Dawley, rat, plasma, po, 10 mg/kg, Cmax, oral 10 mg/kg bw) was 32500 ng/mL. The Tmax [2, 12] was 26.4 min, the bioavailability [2, 12] was 96% and the half-life [2, 12] was 58.2 min. It also gave an AUC(0-t) ([2]; male, Sprague-Dawley, rat, plasma, po, 30 mg/kg, oral 30 mg/kg bw) of 80300 ng·h/mL, a Cmax ([2]; male, Sprague-Dawley, rat, plasma, po, 30 mg/kg, Cmax, oral 30 mg/kg bw) of 50900 ng/mL and a Tmax [2, 13] of 18.6 min. For the same compound, the bioavailability [2, 13] was 65.7%, the half-life [2, 13] was 99.6 min and the AUC(0-t) ([2]; male, Sprague-Dawley, rat, plasma, po, 100 mg/kg, oral 100 mg/kg bw) was 183000 ng·h/mL.

Reference: paper PMC5615911 (Toxicology Reports, 2016)
